Values of other authors, collected in paper PMC9660540 (Clinical Cancer Research, 2022).
Where two headings read alike, the source gives them in different places.

How the values were obtained:
advanced NSCLC = details: in combination with carboplatin, pemetrexed, and pembrolizumab; of 6 evaluable patients; ref [47]; cited from earlier work
[1] = cited from earlier work
[2] = phase I trials; ref [45]; cited from earlier work
mCRPC = details: cited from earlier work; for OS benefit: phase III clinical trials, ref [35–37]
[3] = system: renal cell carcinoma (RCC); details: pretreated patients with RCC; ref [43]; cited from earlier work

Cc1c(C#N)cccc1-c1cc(-c2cn(Cc3cccc(C(C)(C)O)n3)nn2)nc(N)n1 [AB928]
Patients with a PR (advanced NSCLC): 3 patients

C[S@+]([O-])CCOc1cc(N2CCN(CCn3c(=O)sc4c3nc(N)n3nc(-c5ccco5)nc43)CC2)c(F)cc1F [EOS100850]
Grade ≥3 treatment-related AEs ([1]; up to doses of 160 mg twice daily, ref [42, 45]): no grade ≥3 treatment-related AEs | Best response of SD [2]: 6 patients

Nc1nc(-n2cccn2)nc(-n2cccn2)c1Br [NIR178]
Grade ≥3 treatment-related AEs ([1]; monotherapy, at the highest doses (480 and 640 mg), ref [42, 44]): nausea, increased AST, ALT, and lipase levels, and pneumonitis

CO[C@H]1C(=O)[C@]2(C)[C@@H](OC)C[C@H]3OC[C@@]3(OC(C)=O)[C@H]2[C@H](OC(=O)c2ccccc2)[C@]2(O)C[C@H](OC(=O)[C@H](O)[C@@H](NC(=O)OC(C)(C)C)c3ccccc3)C(C)=C1C2(C)C [cabazitaxel]
Median PFS (mCRPC; later-line mCRPC, ref [48]): 3.9 months

Cc1ccc(-c2nc(N)nc3c2nnn3Cc2cccc(CO[C@H]3CCOC3)n2)o1 [ciforadenant]
Most common treatment-related AEs ([1]; ref [42, 43]): fatigue, nausea, and pruritus | Patients with a PR [3]: 3% | Patients with tumor regression (mCRPC; mCRPC, with or without atezolizumab, of 33 patients, ref [46]): 5 patients

atezolizumab: anti–PD-L1 antibody
OS benefit (mCRPC; mCRPC): failed to demonstrate an OS benefit

durvalumab: human immunoglobulin G1 monoclonal antibody that inhibits binding of PD-L1 to PD-1 and CD80
Grade 3−4 treatment-related events ([1]; durvalumab monotherapy, PACIFIC study, ref [33]): 11.8%

ipilimumab: anti–CTLA-4 antibody
OS benefit (mCRPC; mCRPC): failed to demonstrate an OS benefit
